One test addresses T1, human ETA receptor (Homo sapiens, UniProt P25101).
T1 construct: expressed in transfected cells; host or cells: CHO cells
T1 sequence (P25101 21-427): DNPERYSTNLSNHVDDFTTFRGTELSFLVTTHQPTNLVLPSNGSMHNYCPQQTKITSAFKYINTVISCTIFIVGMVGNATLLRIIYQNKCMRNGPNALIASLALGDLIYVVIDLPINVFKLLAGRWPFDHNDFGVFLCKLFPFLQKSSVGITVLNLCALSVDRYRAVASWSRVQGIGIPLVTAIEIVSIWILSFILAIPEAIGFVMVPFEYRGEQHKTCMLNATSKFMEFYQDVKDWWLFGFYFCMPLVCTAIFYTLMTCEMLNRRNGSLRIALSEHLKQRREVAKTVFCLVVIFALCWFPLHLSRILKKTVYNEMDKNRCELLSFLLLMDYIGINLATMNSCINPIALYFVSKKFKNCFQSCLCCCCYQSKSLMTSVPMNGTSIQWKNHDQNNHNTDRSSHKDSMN
Put plainly: ETA receptor binding test ([125J]-ET1, CHO cell membranes). Particulars: cloned human ETA receptor-expressing CHO cell membranes, 25 pM [125J]-ET1, 25° C., 30 min. On the procedure: (§1) For binding studies, cloned human ETA or ETB receptor-expressing CHO cells were employed.
(§2) The ETA or ETB receptor-expressing CHO cells were proliferated in DMEM NUT MIX F12 medium (Gibco, No. 21331-020) using 10% fetal calf serum (PAA Laboratories GmbH, Linz, No. A15-022), 1 mM glutamine (Gibco No. 25030-024), 100 U/ml of penicillin and 100 μg/ml of streptomycin (Gibco, Sigma No P-0781). After 48 hours, the cells were washed with PBS and incubated at 37° C. for 5 minutes with 0.05% trypsin-containing PBS. Neutralization was then carried out with medium and the cells were collected by centrifugation at 300×g.
(§3) For membrane preparation, the cells were adjusted to a concentration of 10^8 cells/ml of buffer (50 mM tris-HCl buff r, pH 7.4) and then disintegrated by ultrasound (Branson Sonifier 250, 40-70 seconds/constant/output 20).
(§4) For the ETA and ETB receptor binding test, the membranes were suspended in incubation buffer (50 mM tris HCl, pH 7.4 with 5 mM MnCl2, 40 mg/ml of bacitracin and 0.2% of BSA) in a concentration of 50 μg of protein per test batch and incubated at 25° C. with 25 pM of [125J]-ET1 (ETA receptor test) or 25 pM of [125I)-ET3 (ETB receptor test) in the presence and absence of test substance. The nonspecific binding was determined using 10^−7 M ET1. After 30 min, the free and the bound radioligand was separated by filtration through GF/B glass fiber filters (Whatman, England) on a Skatron cell collector (Skatron, Lier, Norway) and the filters were washed with ice-cold tris HCl buffer, pH 7.4 with 0.2% of BSA. The radioactivity collected on the filters was quantified using a Packard 2200 CA liquid scintillation counter.

The target of another test is T2, human ETB receptor (Homo sapiens, UniProt P24530).
T2 construct: expressed in transfected cells; host or cells: CHO cells
T2 sequence (P24530 27-442): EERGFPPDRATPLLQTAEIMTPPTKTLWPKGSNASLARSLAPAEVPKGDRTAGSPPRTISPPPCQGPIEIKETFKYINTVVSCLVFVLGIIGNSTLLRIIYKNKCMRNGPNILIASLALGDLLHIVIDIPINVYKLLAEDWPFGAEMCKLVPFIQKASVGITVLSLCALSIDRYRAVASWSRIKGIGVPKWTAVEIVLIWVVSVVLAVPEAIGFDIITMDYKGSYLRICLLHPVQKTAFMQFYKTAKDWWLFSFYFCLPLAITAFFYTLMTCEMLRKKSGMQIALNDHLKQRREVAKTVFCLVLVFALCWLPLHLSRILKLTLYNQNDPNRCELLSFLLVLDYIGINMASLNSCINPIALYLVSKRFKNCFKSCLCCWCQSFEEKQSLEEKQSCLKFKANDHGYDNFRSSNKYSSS
Put plainly: ETB receptor binding test ([125I]-ET3, CHO cell membranes). Particulars: cloned human ETB receptor-expressing CHO cell membranes, 25 pM [125I]-ET3, 25° C., 30 min. The method, then:
as §1, §2, §3, §4

Bounds are passed on as bounds.

On to `COc1cc(OC)nc(OC(C(=O)O)C(NC(=O)N(C)C)(c2ccccc2)c2ccccc2)n1` (stereo not drawn) [Compound I-11, 2-[(4,6-Dimethoxy-2-pyrimidinyl)oxy]-N-[(dimethylamino)carbonyl]-3,3-diphenyl-β-alanine], for which the Ki – broadly, a dissociation constant, usually derived from enzyme kinetics or from competition with a known ligand – is 0.397 µM on human ETA receptor and above 10 µM on human ETB receptor.
`COC(=O)NC(c1ccccc1)(c1ccccc1)C(Oc1nc(OC)cc(OC)n1)C(=O)O` (stereo not drawn) [Compound I-230, 2-[(4,6-Dimethoxy-2-pyrimidinyl)oxy]-N-(methoxycarbonyl)-3,3-diphenyl-β-alanine]: the Ki is 0.089 µM on human ETA receptor and above 10 µM on human ETB receptor.
On the same counts, the results for `COc1ccc(N(C)C(=O)NC(c2ccccc2)(c2ccccc2)C(Oc2nc(OC)cc(OC)n2)C(=O)O)cc1` (stereo not drawn) [Compound I-121, 2-[(4,6-Dimethoxy-2-pyrimidinyl)oxy]-N-{[4-methoxy(methyl)-anilino]carbonyl}-3,3-diphenyl-β-alanine] are 0.31 µM and at least 10 µM.
For `COc1cc(OC)nc(OC(C(=O)O)C(NC(=O)OCc2cc(OC)c(OC)cc2[N+](=O)[O-])(c2ccccc2)c2ccccc2)n1` (stereo not drawn) [Compound I-266, N-{[(4,5-Dimethoxy-2-nitrobenzyl)oxy]carbonyl}-2-((4,6-dimethoxy-2-pyrimidinyl)oxy]-3,3-diphenyl-β-alanine], the inhibition constant Ki on human ETA receptor came to 0.013 µM; on human ETB receptor, 1.09 µM.
For the molecule `COc1ccc(OC(=O)NC(c2ccccc2)(c2ccccc2)C(Oc2nc(OC)cc(OC)n2)C(=O)O)cc1` (stereo not drawn) [Compound I-170, 2-[(4,6-Dimethoxy-2-pyrimidinyl)oxy]-N-[(4-methoxyphenoxy)-carbonyl]-3,3-diphenyl-β-alanine], the values for the Ki on human ETA receptor and at human ETB receptor were 0.12 µM and 1.93 µM, respectively.
The like results for `Cc1cc(C)nc(OC(C(=O)O)C(NC(=O)N(C)C2CCCCC2)(c2ccccc2)c2ccccc2)n1` (stereo not drawn) [Compound I-202, N-{[Cyclohexyl(methyl)amino]carbonyl}-2-[(4,6-dimethyl-2-pyrimidinyl)oxy]-3,3-diphenyl-β-alanine] were, in that order, 0.019 µM and 0.195 µM.
The like results for `CCN(CC)C(=O)NC(c1ccccc1)(c1ccccc1)C(Oc1nc(OC)cc(OC)n1)C(=O)O` (stereo not drawn) [Compound I-86, N-[(Diethylamino)carbonyl]-2-[(4,6-dimethoxy-2-pyrimidinyl)oxy]-3,3-diphenyl-β-alanine] were, in that order, 0.253 µM and above 10 µM.
For the molecule `COc1cc(OC)nc(OC(C(=O)O)C(NC(=O)Oc2ccc(C)c(C)c2)(c2ccccc2)c2ccccc2)n1` (stereo not drawn) [Compound I-168, 2-[(4,6-Dimethoxy-2-pyrimidinyl)oxy]-N-[(3,4-dimethylphenoxy)-carbonyl]-3,3-diphenyl-β-alanine], the Ki stood at 0.105 µM at human ETA receptor and 0.73 µM at human ETB receptor.
The like results for `COc1ccc(CN(C)C(=O)NC(c2ccccc2)(c2ccccc2)C(Oc2nc(OC)cc(OC)n2)C(=O)O)cc1` (stereo not drawn) [Compound I-23, 2-[(4,6-Dimethoxy-2-pyrimidinyl)oxy]-N-{[(4-methoxybenzyl)-(methyl)amino]carbonyl}-3,3-diphenyl-β-alanine] were, in that order, 0.147 µM and 6.62 µM.
The like results for `Cc1cc(C)nc(OC(C(=O)O)C(NC(=O)N2CCCC2)(c2ccccc2)c2ccccc2)n1` (stereo not drawn) [Compound I-26, 2-[(4,6-Dimethyl-2-pyrimidinyl)oxy]-3,3-diphenyl-N-(1-pyrrolidinylcarbonyl)-β-alanine] were, in that order, 0.053 µM and 3.85 µM.
The like results for `COc1cc(OC)nc(OC(C(=O)O)C(NC(=O)OCc2ccccc2)(c2ccccc2)c2ccccc2)n1` (stereo not drawn) [Compound I-140, N-[(Benzyloxy)carbonyl]-2-[(4,6-dimethoxy-2-pyrimidinyl)oxy]-3,3-diphenyl-β-alanine] were, in that order, 0.097 µM and 2.34 µM.
In the case of `COc1cc(OC)nc(OC(C(=O)O)C(NC(=O)N(C)Cc2ccccc2)(c2ccccc2)c2ccccc2)n1` (stereo not drawn) [Compound I-260, N-{[Benzyl(methyl)amino]carbonyl}-2-[(4,6-dimethoxy-2-pyrimidinyl)oxy]-3,3-diphenyl-β-alanine], the Ki turned out to be 0.235 µM on human ETA receptor and 2.44 µM on human ETB receptor.
`Cc1cc(C)nc(OC(C(=O)O)C(NC(=O)N2CCOCC2)(c2ccccc2)c2ccccc2)n1` (stereo not drawn) [Compound I-75, 2-[(4,6-Dimethyl-2-pyrimidinyl)oxy]-N-(4-morpholinylcarbonyl)-3,3-diphenyl-β-alanine]: the Ki on human ETA receptor is 0.117 µM; at human ETB receptor it was 3.45 µM.
On the same counts, the results for `Cc1cc(C)nc(OC(C(=O)O)C(NC(=O)N2CCCCC2)(c2ccccc2)c2ccccc2)n1` (stereo not drawn) [Compound I-52, 2-[(4,6-Dimethyl-2-pyrimidinyl)oxy]-3,3-diphenyl-N-(1-piperidinylcarbonyl)-β-alanine] are 0.073 µM and 4.22 µM.
On the same counts, the results for `COc1ccc(CN(C)C(=O)NC(c2ccccc2)(c2ccccc2)C(Oc2nc(C)cc(C)n2)C(=O)O)cc1` (stereo not drawn) [Compound I-194, 2-[(4,6-Dirnethyl-2-pyrimidinyl)oxy]-N-{[(4-methoxybenzyl)-(methyl)amino]carbonyl}-3,3-diphenyl-β-alanine] are 0.014 µM and 2.33 µM.
On the same counts, the results for `COc1cc(OC)nc(OC(C(=O)O)C(NC(=O)N(C)c2ccccc2)(c2ccccc2)c2ccccc2)n1` (stereo not drawn) [Compound I-155, 2-[(4,6-Dimethoxy-2-pyrimidinyl)oxy]-N-[(methylanilino)carbonyl]-3,3-diphenyl-β-alanine] are 0.265 µM and 5.77 µM.

For the origin of these results see patent publication US20040034076A1, “Novel carbamates and carbamides, production and use thereof as endothelin receptor antagonists” (priority 2000, published 2004).
